Results taken from patent US11123378B2, “Compositions comprising bacterial strains” (4D Pharma Research Limited, priority 2017, dated 2021).

Tested on: cerebral tissues in the cerebral ischemia-reperfusion I/R model in mice
Assay: Histological evaluation (H&E) of cerebral tissues in the cerebral ischemia-reperfusion I/R model
Assay type: in vivo
Conditions: right hemisphere hippocampus; termination day 15 or day 29; compared to PBS negative control (2M)
Text: At termination of the experiment, at either day 15 or day 29, the mice cerebral tissues were subjected to histopathological examinations.
The tissues were studied for pyknotic score (which assesses the extent of cell necrosis and death) and for vacuolisation (which assesses the extent of degeneration similar to apoptosis).
At termination the animals were sacrificed by CO2 asphyxiation. Where possible, half of the animals were sacrificed on day 15, and the other half were sacrificed on day 29. […] Brains were also harvested following saline perfusion. The right hemisphere of each brain was fixed with 2.5% Paraformaldehyde and stored at 2-8° C.
The sections of the right hemisphere of all animals per group were loaded onto slides followed by histological examination. Tissues were trimmed, embedded in paraffin, sectioned at approximately 5 microns thickness and stained with Hematoxylin & Eosin (H&E) (as well as with TUNEL reagents) using standardized protocols. The slides were examined under a light microscope. […]
The numbers of karyopy-knosis and apoptotic cells were counted, and the mean values were calculated. […] Ten field of ×20 magnifications were evaluated for the pyknosis and vacuolization score as follows.
Pyknosis and vacuolization, semi-quantitative scores: • 1. […]
A score was determined for each field of ×20 magnification for each mouse in a given sample group.

Q: `C[C@]12N[C@H](Cc3ccccc31)c1ccccc12` [MK-801] was tested. Which “semi-quantitative pyknosis score (H&E)” value did it give?
A: The value was “reduced pyknosis score”.

Q: And the “semi-quantitative vacuolisation score (H&E)” value?
A: The value was “did not reduce the vacuolisation score”.
